In US20250282757A1, “ARYL ETHER-SUBSTITUTED HETEROCYCLIC COMPOUNDS AS GLP1R AGONISTS” (MINDRANK AI LTD., priority 2021, published 2025):

Experiments:
GLP-1R = GLP-1R (Homo sapiens, UniProt P43220); assay: Agonist activity on GLP-1R, HTRF cAMP detection in stably transfected GLP-1R/HEK293 cells; format: cell-based
[1] = Pharmacokinetic study in mice; format: in vivo, CD-1 mice; conditions: for AUC(0-inf): read-out: AUC0-inf; for half-life: read-out: T½ (converted)
Protocol: The pharmacokinetic properties of some compounds of the present invention were evaluated in mice pharmacokinetic experiments. SPF male CD-1 mice from Beijing Vital River Laboratory Animal Technology Co., Ltd were used with 6 mice in each group. Compounds were dissolved in 10% solutol/90% saline. A single intravenous administration was given at a dose of 1 mg/kg in a volume of 1 mL/kg. A single intragastric administration was given at a dose of 5 mg/kg in a volume of 1 mL/kg. Animals were fasted overnight prior to the administration and resumed feeding 4 hours after administration, ad libitum to water. Blood was collected at 0.0830, 0.25, 0.5, 1, 2, 4, 6, 8 and 24 hours after dosing. About […] of whole blood was collected from the saphenous vein of animals and placed in an EDTA-K2 anticoagulation tube. The samples were centrifuged at 4° C. and 4200 rpm for 5 min, and the plasma was transferred into a centrifuge tube and stored at −80° C. until analysis. For plasma sample analysis, the test compounds and internal standards (Labetalol & tolbutamide & Verapamil & dexamethasone & glyburide & Celecoxib) were extracted from mice plasma by protein precipitation method with acetonitrile, and the extracts were analyzed by LC/MS/MS. The measured plasma concentration-time data of individual animals were analyzed with the non-compartmental model of Phoenix WinNonlin 7.0 (Pharsight, USA) software, and the pharmacokinetic parameters of mice were obtained as follows: maximum (peak) plasma drug concentration Cmax; Peak time Tmax; half-life T1/2 and area under the plasma concentration-time curve extrapolated to infinity AUC0-inf.

[2] = Pharmacokinetic study in monkeys; format: in vivo, cynomolgus monkeys; conditions: for AUC(0-inf): read-out: AUC0-inf; for half-life: read-out: T½ (converted)
Protocol: The pharmacokinetic properties of compounds of the present invention were evaluated in monkey pharmacokinetic experiments with 3 male Non-naive cynomolgus monkeys per group. Compounds were dissolved in 10% solutol/90% saline. For single intravenous administration, the dose was 1 mg/kg, and the administration volume was 1 mL/kg. For single intragastric administration, the dose was 5 mg/kg, and the administration volume was 1 mL/kg. Animals were fasted overnight with free water before the experiment and resumed feeding 4 hours after administration. Blood was collected at 0.0830, 0.25, 0.5, 1, 2, 4, 6, 8 and 24 hours after dosing. About 0.4 mL of whole blood was collected from the animal's forearm vein and placed in an EDTA-K2 anticoagulant tube. The samples were centrifuged at 4° C. and 4200 rpm for 5 min, and the plasma was transferred to a centrifuge tube and stored at −80° C. until analysis. For plasma sample analysis, the test compounds and internal standards (Labetalol & tolbutamide & Verapamil & dexamethasone & glyburide & Celecoxib) were extracted from monkey plasma by protein precipitation method with acetonitrile, and the extracts were analyzed by LC/MS/MS. Measured plasma concentration-time data in individual animals were analyzed using the non-compartmental model of Phoenix WinNonlin 7.0 (Pharsight, USA) software to obtain the following pharmacokinetic parameters: maximum (peak) plasma drug concentration Cmax; time to peak Tmax; Half-life T1/2 and area under the plasma concentration-time curve extrapolated to infinity AUC0-inf.

h-GLP1-R C57BL6J mice = assay: Intraperitoneal glucose tolerance (IPGTT) test in h-GLP1-R C57BL6J mice; format: in vivo
Protocol: The compounds to be tested were dissolved in 10% Solutol HS15+90% Saline, and vortexed by ultrasonic to dissolve.
Male SPF h-GLP1-R C57BL6J mice, 6-9 weeks old, weighing 20 g-25 g.
Upon arrival, animals were acclimated for 7 days before experiments. The body weight and random blood sugar of the animals were measured one day before administration. Animals were divided into 4 groups based on body weight and random blood glucose.
Mice were overnight fasted before IPGTT. Baseline fasting blood glucose and insulin level were measured before vehicle or compound dosing. 30 min post of compound dosing, glucose were injected intraperitoneally (2 g/kg, 10 ml/kg). Blood glucose levels were measured at −30, 0, 15, 30, 60, 120 min. Plasma 15 ul were collected at 0 and 15 min for insulin analysis by Rat/Mouse Insulin Elisa Kit.
AUC0-120min was the area under the blood glucose-time curve. Insulin change was the difference between 15 min and 0 min plasma insulin concentration. Statistical analysis of data was performed with Graphpad Prism 6, and the statistical method was one-way ANOVA Dunnett test. Compared with the vehicle group, p<0.05 was considered a significant difference. * means p<0.05, ** means p<0.01, *** means p<0.001.

cynomolgus monkeys = assay: Intravenous glucose tolerance (IVGTT) experiment in cynomolgus monkey; format: in vivo
Protocol: The compounds were dissolved in 10% Solutol HS15+90% Saline by vortex ultrasound. Vehicle was 10% Solutol HS15+90% Saline.
Male cynomolgus monkeys, 10-15 years old, weighing 6-13 kg. Healthy animals were selected for efficacy studies according to alanine aminotransferase (ALT), aspartate aminotransferase (AST), triglyceride (TG), total cholesterol (TC), high density lipoprotein (HDL), low density lipoprotein (LDL), glycosylated hemoglobin (HbA1c), body weight (BW).
After 1 week of acclimation, the IVGTT baseline before administration was measured, and the animals were grouped according to the insulin and blood glucose results of the IVGTT. The detailed information of treatment was as follows:
IVGTT was started after 2 hours post of compound dosing. Blood were collected-at −15 min, 0 min (before sugar administration), and 2, 5, 7, 10, 20, and 30 min after sugar administration. And the blood glucose level were measured.
Data was analyzed by Graphpad Prism 6 and the statistical method was one-way ANOVA Dunnett's test. Compared with the vehicle group, p<0.05 was considered significant difference. * means p<0.05, ** means p<0.01, *** means p<0.001.

[3] = mouse, plasma, male CD-1 mice, 1 mg/kg iv
[4] = mouse, plasma, male CD-1 mice, 5 mg/kg po
[5] = cynomolgus monkey, plasma, male cynomolgus monkeys, 1 mg/kg iv
[6] = cynomolgus monkey, plasma, male cynomolgus monkeys, 5 mg/kg po

Sequence of GLP-1R (P43220 24-463): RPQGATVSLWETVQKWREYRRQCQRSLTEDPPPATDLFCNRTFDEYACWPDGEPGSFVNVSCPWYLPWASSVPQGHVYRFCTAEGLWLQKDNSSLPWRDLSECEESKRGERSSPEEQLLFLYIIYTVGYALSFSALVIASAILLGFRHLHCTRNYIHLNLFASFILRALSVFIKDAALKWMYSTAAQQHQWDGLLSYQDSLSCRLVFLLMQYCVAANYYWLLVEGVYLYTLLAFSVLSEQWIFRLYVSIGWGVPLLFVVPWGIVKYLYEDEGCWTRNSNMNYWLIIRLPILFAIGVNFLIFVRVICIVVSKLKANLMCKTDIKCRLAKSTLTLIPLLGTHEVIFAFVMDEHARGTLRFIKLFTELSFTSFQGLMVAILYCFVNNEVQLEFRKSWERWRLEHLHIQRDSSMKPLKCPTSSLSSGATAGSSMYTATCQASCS

EC50 (GLP-1R; 30 min incubation): 0.149 nM | Max activity (GLP-1R; relative to top concentration of reference GLP-1(7-37)): 111.5% | F ([1]; male CD-1 mice, 5 mg/kg po): 32.7% | clearance rate compared with PF-06882961 ([1]; mice): lower clearance rates | exposure compared with PF-06882961 ([1]; mice): higher exposure | clearance [1, 3]: 26.2 mL/min/kg | AUC(0-inf) [1, 3]: 637 ng·h/mL | half-life [1, 3]: 1.5 h | Vd ([1]; mouse, plasma, male CD-1 mice, 1 mg/kg iv, read-out: Vdss): 1.3 L/kg | AUC(0-inf) [1, 4]: 1040 ng·h/mL | Cmax ([1]; mouse, plasma, male CD-1 mice, 5 mg/kg po, read-out: Cmax): 483 ng/mL | half-life [1, 4]: 1.7 h | clearance [2, 5]: 12 mL/min/kg | AUC(0-inf) [2, 5]: 1420 ng·h/mL | half-life [2, 5]: 2.2 h | Vd ([2]; cynomolgus monkey, plasma, male cynomolgus monkeys, 1 mg/kg iv, read-out: Vdss): 0.4 L/kg | AUC(0-inf) [2, 6]: 614 ng·h/mL | Cmax ([2]; cynomolgus monkey, plasma, male cynomolgus monkeys, 5 mg/kg po, read-out: Cmax): 214 ng/mL | half-life [2, 6]: 5.4 h | F ([2]; male cynomolgus monkeys, 5 mg/kg po): 8.6% | clearance rate compared with PF-06882961 ([2]; monkeys): lower clearance rates | exposure compared with PF-06882961 ([2]; monkeys): higher exposure | half-life compared with PF-06882961 ([2]; monkeys): greater
Compound: N#Cc1ccc(OCc2cccc(OC3CCN(Cc4nc5ccc(C(=O)O)cc5n4C[C@@H]4CCO4)CC3)n2)c(F)c1 [Compound 55, (S)-2-((4-((6-((4-cyano-2-fluorophenoxy)methyl)pyridin-2-yl)oxy)piperidin-1-yl)methyl)-1-(oxetan-2-ylmethyl)-1H-benzo[d]imidazole-6-carboxylic acid]
Insulin change (15 min minus 0 min plasma insulin) (h-GLP1-R C57BL6J mice; 0.3 mpk po): significantly increase insulin secretion | AUC0-120min (area under the blood glucose-time curve) (h-GLP1-R C57BL6J mice; 0.3 mpk po, compared with the vehicle group): significant difference compared with the vehicle group | blood glucose during IPGTT (h-GLP1-R C57BL6J mice; single oral dose 0.3 mg/kg, glucose 2 g/kg ip 30 min after dosing): significantly reduced the blood glucose | effect on blood glucose compared with PF-06882961 (cynomolgus monkeys; 100 mg/kg po, IVGTT): equivalent | blood glucose level in IVGTT (cynomolgus monkeys; single oral dose of 100 mg/kg, IVGTT 2 hours after dosing): significantly lower the blood glucose level
